Source: patent US10253081B2, “Glucagon analogues” (Zealand Pharma A/S, priority 2012, dated 2019)
*1 amine or outer side, *2 acyl side, *3 side chain or, on linkers, in order; H or OH if unused. Where a SMILES comes first, the peptide text is derived from it. Side-chain parts run from the residue outwards. [ ]: non-standard residue; d: D form. The star is where a group is joined. γGlu = O=C(O)[C@H](CCC(=O)[*:2])N[*:1]; Palmitoyl = CCCCCCCCCCCCCCCC(=O)*; Aib = CC(C)(N)C(=O)O

Key:
Assay type in all cases: cell-based
[1] = molecular target: T1, human glucagon receptor (Glucagon-R) (Homo sapiens, UniProt P47871); experiment: Glucagon receptor efficacy assay (cAMP AlphaScreen, CHO cells); conditions: Table 1B; same protocol, different laboratory; read-out: EC50 hGCGR CHO-K1
T1 construct: expressed in transfected cells
T1 sequence (P47871 26-477): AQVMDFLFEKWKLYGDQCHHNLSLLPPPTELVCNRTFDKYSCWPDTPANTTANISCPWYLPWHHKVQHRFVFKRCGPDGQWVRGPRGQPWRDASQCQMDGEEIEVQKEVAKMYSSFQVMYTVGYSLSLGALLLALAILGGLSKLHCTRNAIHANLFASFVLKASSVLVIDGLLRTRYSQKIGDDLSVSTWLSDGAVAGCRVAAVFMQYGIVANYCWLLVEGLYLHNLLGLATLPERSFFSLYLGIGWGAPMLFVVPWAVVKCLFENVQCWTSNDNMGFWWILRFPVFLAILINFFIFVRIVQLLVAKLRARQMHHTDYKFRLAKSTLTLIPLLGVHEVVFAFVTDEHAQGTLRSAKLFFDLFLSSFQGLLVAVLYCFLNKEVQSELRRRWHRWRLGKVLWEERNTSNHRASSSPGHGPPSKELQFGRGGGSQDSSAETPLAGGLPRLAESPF
From the text: (§1) The cDNA encoding either the human glucagon receptor (Glucagon-R) (primary accession number P47871) or the human glucagon-like peptide 1 receptor (GLP-1R) (primary accession number P43220) were synthesized and cloned into a mammalian expression vector containing a Zeocin resistance marker.
(§2) The mammalian expression vectors encoding the Glucagon-R or the GLP-1-R were transfected into Chinese hamster ovary (CHO) cells by the Attractene method method. Stably expressing clones were obtained by Zeocin selection (250 μg/mL) upon limited dilution of cells resistant to the selection pressure. Glucagon-R and GLP-1-R cell clones expressing were picked, propagated and tested in the Glucagon-R and GLP-1-R efficacy assays as described below. One Glucagon-R expressing clone and one GLP-1-R expressing clone were chosen for compound profiling.
(§3) CHO cells expressing the human Glucagon-R, or human GLP-1-R were seeded 24 hours prior to the assay at 30,000 cells per well in 96-well microtiter plates in culture in 100 μl growth medium. On the day of analysis, growth medium was removed and the cells were washed once with 200 μl of assay buffer (Krebs-Ringer-buffer—KRBH). The buffer was removed and the cells were incubated for 15 min at room temperature in 10 μl KRBH (KRBH+10 mM HEPES, 5 mM NaHCO3, 0.1% (V/V) BSA) with 0.1 mM IBMX in deionized water containing increasing concentrations of test peptides. The reaction was stopped by the addition of lysis buffer (0.1% w/v BSA, 5 mM HEPES, 0.3% v/v Tween-20). After cell lysis for 10 min at room temperature, lysates were transferred to 384-well plates and 10 μl of acceptor/donorbead mixture as contained in the AlphaScreen™ cAMP Functional Assay Kit was added. After one hour of incubation at room temperature in the dark, the cAMP content was determined applying the AlphaScreen™ cAMP Functional Assay Kit from Perkin-Elmer according to manufacturer instructions. EC50 and relative efficacies compared to reference compounds (glucagon and GLP-1) were calculated applying computer aided curve fitting. The GLP-1/glucagon ratio is calculated as defined earlier.

[2] = molecular target: T2, human glucagon-like peptide 1 receptor (GLP-1R) (Homo sapiens, UniProt P43220); experiment: GLP-1 receptor efficacy assay (cAMP AlphaScreen, CHO cells); conditions: Table 1B; for Ratio GLP-1/Glucagon: EC50 [GLP-1R]/EC50 [Glucagon-R]; for EC50: same protocol, different laboratory, read-out: EC50 hGLP-1R CHO-K1
T2 construct: expressed in transfected cells
T2 sequence (P43220 24-463): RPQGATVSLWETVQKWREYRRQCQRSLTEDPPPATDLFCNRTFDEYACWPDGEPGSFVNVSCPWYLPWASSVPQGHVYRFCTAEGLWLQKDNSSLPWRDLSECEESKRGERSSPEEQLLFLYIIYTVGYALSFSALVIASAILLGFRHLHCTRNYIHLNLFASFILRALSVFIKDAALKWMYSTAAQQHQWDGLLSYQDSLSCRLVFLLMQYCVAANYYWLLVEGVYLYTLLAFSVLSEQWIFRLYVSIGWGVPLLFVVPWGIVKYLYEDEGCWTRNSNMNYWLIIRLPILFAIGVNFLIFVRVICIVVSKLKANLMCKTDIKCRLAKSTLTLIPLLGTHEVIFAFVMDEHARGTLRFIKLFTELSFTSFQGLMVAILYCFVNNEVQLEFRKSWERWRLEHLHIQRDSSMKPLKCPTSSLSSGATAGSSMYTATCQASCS
From the text: as §1, §2, §3

[3] = molecular target: T3, endogenous GLP-1 receptors (Mus musculus, UniProt O35659); experiment: Agonistic activity on endogenous GLP-1 receptor (cAMP, murine insulinoma cell line); conditions: intracellular cAMP, 15 minutes at 26° C.; read-out: EC50 GLP-1R (murine insulinoma cells)
T3 construct: Agonistic activity of the test compounds on endogenous GLP-1 receptors; endogenous in cells
T3 sequence (O35659 22-463): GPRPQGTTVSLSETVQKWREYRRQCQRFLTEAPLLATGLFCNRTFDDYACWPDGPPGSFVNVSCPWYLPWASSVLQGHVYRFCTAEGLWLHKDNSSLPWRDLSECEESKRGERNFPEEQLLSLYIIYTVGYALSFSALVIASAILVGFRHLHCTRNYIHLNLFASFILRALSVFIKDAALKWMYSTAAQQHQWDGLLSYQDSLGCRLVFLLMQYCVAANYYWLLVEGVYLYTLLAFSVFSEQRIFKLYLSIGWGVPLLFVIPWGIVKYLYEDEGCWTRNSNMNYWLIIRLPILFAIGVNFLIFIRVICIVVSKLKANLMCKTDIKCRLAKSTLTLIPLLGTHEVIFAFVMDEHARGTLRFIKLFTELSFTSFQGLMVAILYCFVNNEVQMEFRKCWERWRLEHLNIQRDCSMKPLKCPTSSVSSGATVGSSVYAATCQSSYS
Experimental: Agonistic activity of the test compounds on endogenous GLP-1 receptors was determined using a murine insulinoma cell line. Intracellular cAMP was used an indicator of receptor activation.
Cells were cultured for 24 h at a density of 10,000 cells/well in a 384-well plate. Medium was removed and 10 μL KRBH buffer (NaCl 130 mM, KCl 3.6 mM, NaH2PO4 0.5 mM, MgSO4 0.5 mM, CaCl2) 1.5 mM) containing test compound or GLP-1 (at increasing concentrations from […] to 100 nM) or solvent control (0.1% (v/v) DMSO) was added to the wells for 15 minutes at a temperature of 26° C.
The cellular cAMP content is measured using the AlphaScreen cAMP Functional Assay Kit (Perkin Elmer). Measurement was performed using the Envision (PerkinElmer) according to manufacturer's recommendations.
All measurements were performed in quadruplicate.
Results were converted into cAMP concentrations using a cAMP standard curve prepared in KRBH buffer containing 0.1% (v/v) DMSO. The resulting cAMP curves were plotted as absolute cAMP concentrations (nM) over log (test compound concentration) and analyzed using the curve fitting program XLfit.
Parameters calculated to describe the both the potency as well as the agonistic activity of each test compound on the endogenous GLP-1 receptors were:
pEC50 (negative logarithmic value of EC50, a concentration resulting in a half-maximal elevation of cAMP levels, reflecting the potency of the test compound);
Percent control (% CTL)(% cAMP elevation for each test compound concentration normalized based on the GLP-1-induced maximum cAMP response (100% CTL)).

[4] = molecular target: T4, endogenous glucagon receptor (Rattus norvegicus, UniProt P30082); experiment: Agonistic activity on endogenous glucagon receptor (glycogen synthesis rate in primary rat hepatocytes); conditions: inhibition of glycogen synthesis rate, 3 hours, read-out: EC50 GLP-1R Rat hepat.
T4 construct: Agonistic activity of the test compounds on endogenous glucagon receptor; endogenous in cells; host or cells: primary rat hepatocytes
T4 sequence (P30082 27-485): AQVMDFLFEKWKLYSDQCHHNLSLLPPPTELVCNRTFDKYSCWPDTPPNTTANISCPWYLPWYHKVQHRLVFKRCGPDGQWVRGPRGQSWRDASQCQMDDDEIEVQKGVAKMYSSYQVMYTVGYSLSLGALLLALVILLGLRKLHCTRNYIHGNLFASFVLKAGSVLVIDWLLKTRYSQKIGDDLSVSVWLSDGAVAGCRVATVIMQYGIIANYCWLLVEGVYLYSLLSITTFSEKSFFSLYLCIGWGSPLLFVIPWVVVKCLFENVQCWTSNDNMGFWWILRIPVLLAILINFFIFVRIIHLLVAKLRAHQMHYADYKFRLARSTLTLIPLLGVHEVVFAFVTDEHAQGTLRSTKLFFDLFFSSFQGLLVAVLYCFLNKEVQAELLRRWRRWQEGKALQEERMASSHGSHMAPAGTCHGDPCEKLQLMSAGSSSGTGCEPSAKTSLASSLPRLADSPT
Experimental: Agonistic activity of the test compounds on endogenous glucagon receptor was determined by measuring their effect on rate of glycogen synthesis in primary rat hepatocytes. Upon activation of the glucagon receptor, an inhibition of the glycogen synthesis rate is expected. Rate of glycogen synthesis was determined by counting the amount of radioactively labeled glucose incorporated into the cellular glycogen stores in a defined period of time.
Primary rat hepatocytes were cultured at a density of 40,000 cells/well in a 24-well plate for 24 hours at 37° C. and 5% CO2.
Medium was discarded and the cells washed with PBS. 180 μL of KRBH-based buffer containing 0.1% BSA and glucose at a concentration of 22.5 mM was then added to the wells, followed by test compound and 40 μCi/ml D-[U14C] glucose (20 μL each). Incubation was continued for 3 hours.
At the end of the incubation period, the incubation buffer was aspirated and cells washed once with ice-cold PBS before lysis by incubation for 30 min at room temperature with 100 μL 1 mol/l NaOH.
Cell lysates were transferred to 96-well filter plates and glycogen precipitated by incubating the filter-plates for 120 min at 4° C. followed by washing the filter plates 4 times with ice-cold ethanol (70%). The resulting precipitates were filtered to dryness and the amount of incorporated ^14C-glucose determined by using a Topcount scintillation counter according to manufacturer's recommendations.
Wells with vehicle controls (0.1% (v/v) DMSO in KRBH buffer) were included as reference for non-inhibited glycogen synthesis (100% CTL). Wells without added D-[U^14C] glucose were included as controls for non-specific background signal (subtracted from all values). Endogenous glucagon peptide was used as a positive control.
All treatments were performed at least in triplicates.
Parameters calculated to describe the both the potency as well as the agonistic activity of each test compound on the endogenous glucagon receptor are pEC50 and % CTL. % CTL is determined by calculating the percentage of CPM/well in the presence of the test compound compared to the CPM/well of the vehicle control after subtracting the background CPM/well: [CPM/well(basal)−CPM/well(sample)]*100/[CPM/well(basal)−CPM/well(control)]
An activator of the glucagon receptor will result in an inhibition of the glycogen synthesis rate and will give % CTL values between 0% CTL (complete inhibition) and 100% CTL (no observable inhibition).
The resulting activity curves were plotted as absolute counts (unit: cpm/sample) over log (test compound concentration) and analyzed using the curve fitting program XLfit.
pEC50 (negative logarithmic value of EC50) reflects the potency of the test compound.
The terms EC50 and pEC50 quoted in relation to GLP-1R activation could equally be regarded as IC50 and pIC50 in relation to glycogen synthesis.

EC50 [1]	Ratio GLP-1/Glucagon [2]	EC50 [2]	EC50 [3]	EC50 [4]	Compound
0.25 nM	0.52	0.13 nM	0.31 nM	1.32 nM	CCCCCCCCCCCCCCCC(=O)N[C@@H](CCC(=O)NCCCC[C@H](NC(=O)[C@H](CO)NC(=O)[C@H](CCC(=O)O)NC(=O)[C@H](CC(C)C)NC(=O)[C@H](Cc1ccc(O)cc1)NC(=O)[C@H](CCCCN)NC(=O)[C@H](CO)NC(=O)[C@H](Cc1ccc(O)cc1)NC(=O)[C@H](CC(=O)O)NC(=O)[C@H](CO)NC(=O)[C@@H](NC(=O)[C@H](Cc1ccccc1)NC(=O)[C@@H](NC(=O)CNC(=O)[C@H](CCC(N)=O)NC(=O)C(C)(C)NC(=O)[C@@H](N)Cc1c[nH]cn1)[C@@H](C)O)[C@@H](C)O)C(=O)N[C@@H](C)C(=O)N[C@@H](C)C(=O)N[C@@H](Cc1c[nH]cn1)C(=O)N[C@@H](CC(=O)O)C(=O)N[C@@H](Cc1ccccc1)C(=O)N[C@H](C(=O)N[C@@H](CCC(=O)O)C(=O)N[C@@H](Cc1c[nH]c2ccccc12)C(=O)N[C@@H](CC(C)C)C(=O)N[C@@H](CCC(=O)O)C(=O)N[C@@H](CO)C(=O)N[C@@H](C)C(N)=O)C(C)C)C(=O)O [Compound 23, H-H-Aib-QGTFTSDYSKYLES-K(Hexadecanoyl-isoGlu)-AAHDFVEWLESA-NH2] (H-H[Aib]QGTFTSDYSKYLESK([γGlu-Palmitoyl])AAHDFVEWLESA-NH2)
0.1 nM	2.40	0.24 nM	0.35 nM	0.28 nM	CCCCCCCCCCCCCCCC(=O)N[C@@H](CCC(=O)NCCCC[C@H](NC(=O)[C@H](CCC(=O)O)NC(=O)[C@H](CCC(=O)O)NC(=O)[C@H](CC(C)C)NC(=O)[C@H](Cc1ccc(O)cc1)NC(=O)[C@H](CCCCN)NC(=O)[C@H](CO)NC(=O)[C@H](Cc1ccc(O)cc1)NC(=O)[C@H](CC(=O)O)NC(=O)[C@H](CO)NC(=O)[C@@H](NC(=O)[C@H](Cc1ccccc1)NC(=O)[C@@H](NC(=O)CNC(=O)[C@H](CCC(N)=O)NC(=O)[C@H](CO)NC(=O)[C@@H](N)Cc1c[nH]cn1)[C@@H](C)O)[C@@H](C)O)C(=O)N[C@@H](C)C(=O)N[C@@H](C)C(=O)N[C@@H](CCCCN)C(=O)N[C@@H](CC(=O)O)C(=O)N[C@@H](Cc1ccccc1)C(=O)N[C@H](C(=O)N[C@@H](CCC(=O)O)C(=O)N[C@@H](Cc1c[nH]c2ccccc12)C(=O)N[C@@H](CC(C)C)C(=O)N[C@@H](CCC(=O)O)C(=O)N[C@@H](CO)C(=O)N[C@@H](C)C(N)=O)[C@@H](C)CC)C(=O)O [Compound 22, H-HSQGTFTSDYSKYLEE-K(Hexadecanoyl-isoGlu)-AAKDFIEWLESA-NH2] (H-HSQGTFTSDYSKYLEEK([γGlu-Palmitoyl])AAKDFIEWLESA-NH2)
0.68 nM	0.34	0.23 nM	0.27 nM	0.39 nM	CCCCCCCCCCCCCCCC(=O)N[C@@H](CCC(=O)NCCCC[C@H](NC(=O)[C@H](CCC(=O)O)NC(=O)[C@H](CCC(=O)O)NC(=O)[C@H](CC(C)C)NC(=O)[C@H](Cc1ccc(O)cc1)NC(=O)[C@H](CCCCN)NC(=O)[C@H](CO)NC(=O)[C@H](Cc1ccc(O)cc1)NC(=O)[C@H](CC(=O)O)NC(=O)[C@H](CO)NC(=O)[C@@H](NC(=O)[C@H](Cc1ccccc1)NC(=O)[C@@H](NC(=O)CNC(=O)[C@H](CCC(N)=O)NC(=O)C(C)(C)NC(=O)[C@@H](N)Cc1c[nH]cn1)[C@@H](C)O)[C@@H](C)O)C(=O)N[C@@H](C)C(=O)N[C@@H](C)C(=O)N[C@@H](CCCCN)C(=O)N[C@@H](CC(=O)O)C(=O)N[C@@H](Cc1ccccc1)C(=O)N[C@H](C(=O)N[C@@H](CCC(=O)O)C(=O)N[C@@H](Cc1c[nH]c2ccccc12)C(=O)N[C@@H](CC(C)C)C(=O)N[C@@H](CCC(=O)O)C(=O)N[C@@H](CO)C(=O)N[C@@H](C)C(N)=O)[C@@H](C)CC)C(=O)O [Compound 20, H-H-Aib-QGTFTSDYSKYLEE-K(Hexadecanoyl-isoGlu)-AAKDFIEWLESA-NH2] (H-H[Aib]QGTFTSDYSKYLEEK([γGlu-Palmitoyl])AAKDFIEWLESA-NH2)
